Reference: patent publication US20260158050A1, “USE OF EIDD-1931 OR DERIVATIVE THEREOF IN TREATMENT OF ENTEROVIRUS INFECTION” (ACADEMY OF MILITARY MEDICAL SCIENCES, priority 2022, published 2026)

Legend:
EV-A71 H strain = assay: protection against cytopathic effect (CPE) caused by EV-A71, Cell-Titer Glo; assay type: cell-based; settings: for EC50: EV-A71 H strain, 3 days; for inhibition of the cytopathic effect caused by the virus: multiple cell lines infected with EV-A71 (FIG. 2)
Description: Human liver tumor cells (Huh7 cells) used in the experiment were purchased from Chinese National Infrastructure of Cell Line Resource. Human […] cells (RD cells) and African green monkey kidney cells (Vero cells) were purchased from ATCC (Cat. No.: CCL-136 and CCL-81, respectively). The above cells were cultured in a cell culture incubator at 37° C. and 5% CO2. The complete culture medium used for cell growth was DMEM high-glucose culture medium (purchased from Gibco, Cat. […] No.: 16000044) and penicillin-streptomycin (purchased from Gibco, Cat. No.: 2321152). The maintenance culture medium used for cell culture was DMEM high-glucose culture medium supplemented with 2% FBS and penicillin-streptomycin. H strain of EV-A71 was purchased from ATCC (Cat. No.: VR-1432). Compounds EIDD-1931 and EIDD-2801 were purchased from Shanghai Topscience Biochemical Technology Co., Ltd. (Cat Nos: […] and […], respectively), and their structures were shown in FIG. 1. Cell-Titer Glo® Luminescent Cell Viability Assay Solution was purchased from Promega (Cat. No.: G7572). The microplate reader, model Spectra Max M5, was purchased from Molecular Devices. Huh7 cells, RD cells, and Vero cells were seeded into a 96-well plate with a white wall and a transparent bottom at a density of about 1.0×10^4 per well and cultured at 37° C. and 5% CO2 for 24 hours. Then, the EV-A71 virus was diluted with cell maintenance solution and added to the 96-well plate to reach a final concentration of 100TCID50. […] After 3 days, the supernatant was discarded, and the diluted Cell-Titer Glo® Luminescent Cell Viability Assay Solution was added. The cells were shaken and lysed for 5 minutes in the dark, and then allowed to stand for 3 minutes. Finally, the luminescence value of each well was measured using the microplate reader. The formula for calculating the inhibition rate of the test compounds against virus was: [formula] Origin9.0 software was used to fit the inhibition rate-concentration S-shaped curve and calculate the half-maximal effective concentrations (EC50) of the test compounds. The half-cytotoxic concentrations (CC50) of the test compounds were calculated using the same method, and the select index (SI) was calculated based on EC50 and CC50: SI=CC50/EC50.

RD cells = assay: cytotoxicity test on RD cells; assay type: cell-based, Human; settings: 3 days
Description: (§1) Human liver tumor cells (Huh7 cells) used in the experiment were purchased from Chinese National Infrastructure of Cell Line Resource. Human […] cells (RD cells) and African green monkey kidney cells (Vero cells) were purchased from ATCC (Cat. No.: CCL-136 and CCL-81, respectively). The above cells were cultured in a cell culture incubator at 37° C. and 5% CO2. The complete culture medium used for cell growth was DMEM high-glucose culture medium (purchased from Gibco, Cat. […] No.: 16000044) and penicillin-streptomycin (purchased from Gibco, Cat. No.: 2321152). The maintenance culture medium used for cell culture was DMEM high-glucose culture medium supplemented with 2% FBS and penicillin-streptomycin. H strain of EV-A71 was purchased from ATCC (Cat. No.: VR-1432). […] The microplate reader, model Spectra Max M5, was purchased from Molecular Devices. […] Finally, the luminescence value of each well was measured using the microplate reader. The inhibition rate of the test compounds at each dilution was calculated as follows: [formula] […] The half-cytotoxic concentrations (CC50) of the test compounds were calculated using the same method, and the select index (SI) was calculated based on EC50 and CC50: SI=CC50/EC50.

Vero cells = assay: cytotoxicity test on Vero cells; assay type: cell-based, African green monkey; settings: 3 days
Description: as §1

EV-A71 RNA = assay: inhibition of EV-A71 viral RNA replication (qRT-PCR) in RD cells; assay type: cell-based; settings: 0.1 MOI, 30 hours (FIG. 3 B and D)
EV-A71 [1] = assay: infectious virus particle formation in supernatant (TCID50 detection); assay type: cell-based; settings: supernatant of RD cells, TCID50 (FIG. 3 A and C)
EV-A71 [2] = assay: protection of 1-day-old ICR suckling mice with lethal EV-A71 infection; assay type: in vivo; settings: for protective effect on ICR suckling mice inoculated with a lethal dose of EV-A71: 200, 66.6, 22.2, 7.41 mg/kg intraperitoneally once per day for 7 days
Description: 10 litters of 1-day-old ICR offspring female mice were randomly divided into 10 groups, namely, virus control group (2 groups), EIDD-1931 administration group (4 groups), and EIDD-2801 administration group (4 groups). The dosages of EIDD-1931 and EIDD-2801 were 200 mg/kg, 66.6 mg/kg, 22.2 mg/kg, and 7.41 mg/kg, respectively. Each mouse was challenged with 10^6 PFU intraperitoneally, and administrated the drug intraperitoneally 4 hours later. The mice of virus control group were administrated the drug solvent. And then, the drug was administered once per day for 7 consecutive days. The mice were weighed, and the survival and weight changes in the mice were recorded every day.
Log-Rank was used to calculate the statistical significance of the survival curve. p<0.05 indicated statistical significance.

EV-A71 [3] = assay: EV-A71 viral load in ICR suckling mice tissues (qRT-PCR); assay type: in vivo; settings: 200 mg/kg intraperitoneally once per day, 4th day (FIG. 7)
CV-A6 TW-2007-00141 = assay: CPE protection, CV-A6 TW-2007-00141 strain; assay type: cell-based; settings: CV-A6 TW-2007-00141, RD cells
CV-A16 190-D1 = assay: CPE protection, CV-A16 190-D1 strain; assay type: cell-based; settings: for EC50: CV-A16 190-D1, RD cells
CV-B3 Nancy = assay: CPE protection, CV-B3 Nancy strain; assay type: cell-based; settings: for EC50: CV-B3 Nancy, Vero cells

Structure (SMILES) | EC50 (EV-A71 H strain; Huh7 cells) | EC50 (EV-A71 H strain; RD cells) | EC50 (EV-A71 H strain; Vero cells) | SI (CC50/EC50) (EV-A71 H strain; Huh7 cells) | SI (CC50/EC50) (EV-A71 H strain; RD cells) | SI (CC50/EC50) (EV-A71 H strain; Vero cells) | inhibition of the cytopathic effect caused by the virus (EV-A71 H strain) | CC50 (RD cells) | CC50 (Vero cells) | inhibition of replication of EV-A71 RNA (EV-A71 RNA) | inhibition of production of infectious viral particles (EV-A71 [1]) | time within which the mice died (EV-A71 [2]; 7.41 mg/kg intraperitoneally) | protective effect on ICR suckling mice inoculated with a lethal dose of EV-A71 (EV-A71 [2]) | viral loads in tissues or organs (brain, heart, small intestine, liver, hind limb muscle, lung) (EV-A71 [3]) | EC50 (CV-A6 TW-2007-00141) | EC50 (CV-A16 190-D1) | EC50 (CV-B3 Nancy) | also measured
O=c1nc(NO)ccn1[C@@H]1O[C@H](CO)[C@@H](O)[C@H]1O [EIDD-1931] | 4.43 ± 0.33 µM | 5.13 ± 0.56 µM | 7.04 ± 0.38 µM | 7.69 | 15.69 | 2.0 | dose-dependently inhibit | 80.47 ± 0.02 µM | 14.1 ± 0.43 µM | dose-dependently inhibited | inhibited | ≤ 12 days | dose-dependent protective effect | significantly reduced | 17.7 ± 0.38 µM | 4.14 ± 0.27 µM | 3.65 ± 0.82 µM | survival rate (EV-A71 [2]; 22.2 mg/kg intraperitoneally): 60%; protection from the lethal dose of EV-71 virus (EV-A71 [2]; 66.6 mg/kg intraperitoneally): completely protect; protection from the lethal dose of EV-71 virus (EV-A71 [2]; 200 mg/kg intraperitoneally): completely protect; weight gain of surviving mice (EV-A71 [2]; 200, 66.6 and 22.2 mg/kg): good weight gain
CC(C)C(=O)OC[C@H]1O[C@@H](n2cc/c(=N\O)[nH]c2=O)[C@H](O)[C@@H]1O [EIDD-2801] | 35.6 ± 0.47 µM | 70.1 ± 4.4 µM | 88.5 ± 3.18 µM | > 2.81 | > 1.43 | > 1.13 | dose-dependently inhibit | > 100 µM | > 100 µM | dose-dependently inhibited | inhibited | ≤ 13 days | dose-dependent protective effect | significantly reduced | > 100 µM | 44.9 ± 4.23 µM | 87.2 ± 10.8 µM | time within which the mice died (EV-A71 [2]; 22.2 mg/kg intraperitoneally): ≤ 13 days; survival rate (EV-A71 [2]; 66.6 mg/kg intraperitoneally): 67%; survival rate (EV-A71 [2]; 200 mg/kg intraperitoneally): 100%; inhibitory activity against CV-A16 (CV-A16 190-D1): low inhibitory activity; inhibitory activity against CV-B3 (CV-B3 Nancy): low inhibitory activity
